Key:
Type in all cases: cell-based, human
HUVECs [1] = assay: HUVEC proliferation with VEGFR2 inhibition on tissue culture polystyrene (EdU); conditions: 10 μM SU5416, HUVECs on TCPS, 24 hours
Description: HUVECs were plated in tissue culture polystyrene (TCPS) 24-well plates at a density of 5.0×10^4 cells/cm^2. The cells were grown in growth medium alone or with 10 μM SU5416 for 24 hours. Afterward, the medium was changed to fresh growth medium with or without 10 μM SU5416 and 20 μM EdU. After 5 hours of incubation, the cells were fixed in 10% buffered formalin for 30 minutes and stained using the Click-iT EdU 488 proliferation kit (Invitrogen). The staining procedure was slightly modified from the manufacturer's instructions, as Alexa Fluor® 488 was diluted to half the recommended concentration. The cells were photographed using a Nikon TE300 fluorescence microscope and proliferation was quantified via by counting nuclei staining positive for EdU and normalizing the number to total nuclei.

HUVECs [2] = assay: HUVEC tubulogenesis in growth factor-reduced MATRIGEL spots; conditions: 10 μM SU5416, HUVECs in growth factor-reduced MATRIGEL, 48 hours
Description: HUVECs were suspended in growth factor-reduced MATRIGEL® (BD Biosciences, San Jose, Calif.) at a density of 2×10^7 cells/mL. A 200 μm thick PDMS sheet of microwells was placed on top of a glass slide and the MATRIGEL®-cell suspension was pipetted as 0.4 μl droplets into the microwells. These arrays of MATRIGEL® “spots” were incubated at 37° C. for 30 minutes and covered in growth medium alone or with 10 μM SU5416. After 48 hours of culture, the arrays were stained with Cell Tracker Green in the same manner as in the PEG hydrogel viability assay, but without Hoechst nuclear stain or ethidium homodimer. The arrays were washed with 1×PBS and fixed for 30 minutes in 10% buffered formalin. A green fluorescence and phase contrast z-stack image of each spot was taken at 48 hours after encapsulation using a Nikon TI Eclipse microscope. Total CLS length in each individual spot was quantified manually.

HUVECs [3] = assay: HUVEC tubulogenesis (total CLS length) in 3D PEG hydrogel array spots; conditions: 10 μM SU5416, 24 hours
Description: (§1) During proliferation and tubulogenesis experiments, the arrays of encapsulated cells were cultured in growth medium alone or with 10 μM SU5416 for 24 hours only. Afterward, the cells were incubated for 5 hours in growth medium with 20 μM 5-ethynyl-2′-deoxyuridine (EdU) (Invitrogen) as a proliferation marker and, if appropriate, 10 μM SU5416. Afterward, the arrays were stained with Cell Tracker Green in the same manner as the viability assay, but without Hoechst nuclear stain or ethidium homodimer. The arrays were washed with 1×PBS, fixed for 30 minutes in 10% buffered formalin and stained using the Click-iT EdU 594 proliferation kit (Invitrogen). The staining procedure was slightly modified from the manufacturer's instructions, as Alexa Fluor® 594 was diluted to half the recommended concentration. The arrays were soaked in 1×PBS overnight and photographed using a Nikon TE300 fluorescence microscope. Proliferation was quantified by counting the number of EdU-positive cells and dividing by the total number of nuclei in the post. Tubulogenesis was quantified by manually measuring total capillary-like structure (CLS) length in each post as labeled by Cell Tracker Green. To obtain confocal microscopy images, the hydrogel arrays were mounted in Prolong Gold antifade solution (Invitrogen) and photographed on a Nikon A1R-Si confocal microscope.
Hydrogel solutions were created by combining 36, 42 or 60 mg/mL 20 kDa 8-arm norbornene-functionalized PEG with 0 to 2 mM CRGDS (SEQ ID NO:2) adhesion peptide, additional CRDGS (SEQ ID NO:32) scrambled adhesion peptide to maintain a total adhesion peptide concentration of 2 mM, […] (SEQ ID NO:27) crosslinking peptide at a 2× molar excess concentration to PEG and 0.05% IRGACURE 2959 photoinitiator in phosphate buffered saline. The solutions were polymerized into hydrogels under UV light (90 mW/cm^2, 365 nm, 2 seconds). HUVECs were encapsulated at a density of 2.0×10^7 […] in hydrogels and incubated in M199 supplemented with EGM2 growth supplement. The cells were stained with Cell Tracker Green CMFDA, photographed 24 hours after seeding and scored for total tubule length in the spots. Results are shown FIGS. 18, 28 and 29.

HUVECs [4] = assay: HUVEC proliferation in 3D PEG hydrogel array spots (Click-iT EdU); conditions: 10 μM SU5416, 24 hours
Description: as §1

HUVECs [5] = assay: HUVEC viability in 3D PEG hydrogel array spots; conditions: 10 μM SU5416, 48 hours
Description: During hydrogel array fabrication, hydrogel spots contained HUVECs at a density of 2×10^7 cells/mL. The concentration of CRGDS adhesion peptide (SEQ ID NO:2) was adjusted to 0, 0.25, 0.5, 1.0 and 2.0 mM through the addition of PEGNB-CRGDS (SEQ ID NO:2), with the total pendant peptide concentration in all hydrogel spots maintained at 2 mM by adding PEGNB-CRDGS (SEQ ID NO:2). Total polymer percent weight was varied between 4.2, 5 and 7% w/v in the hydrogel spots and 4, 6 and 8% w/v in the backgrounds, with low percent weight hydrogel spots corresponding to low weight percent backgrounds and high percent weight hydrogel spots corresponding to high percent weight backgrounds. During viability experiments, arrays of encapsulated cells were cultured for 48 hours in growth medium alone or with 10 μM SU5416 (Sigma Aldrich), a known inhibitor of VEGFR2 signaling. Medium was replaced 24 hours after encapsulation. After 48 hours of culture, the arrays were washed with serum-free M199 and stained with 5 μM Cell Tracker Green (Invitrogen) for 45 minutes in M199. After 15 minutes of staining, the staining solution was supplemented with Hoechst nuclear stain (Invitrogen) to achieve a final concentration of 10 μg/mL. After staining, the arrays were washed with serum free M199 and incubated for 30 minutes in growth medium containing 2 μM ethidium homodimer (Invitrogen). The arrays were then washed with 1×PBS and fixed for 30 minutes in 10% buffered formalin (Fisher). The arrays were soaked in 1×PBS overnight and photographed using a Nikon TE300 fluorescence microscope within 48 hours of fixation. Viability was quantified by dividing the number of live cell nuclei by total nuclei in the post.

Cc1cc(C)c(/C=C2\C(=O)Nc3ccccc32)[nH]1 [SU5416]
decrease in proliferation compared to the growth medium control (HUVECs [1]): 20% | decrease in total tubule length compared to growth medium only (HUVECs [2]): 50% | effect of VEGFR2 inhibition on CLS length (HUVECs [3]; high modulus, 1 mM CRGDS spots): decreased CLS length | effect of VEGFR2 inhibition on CLS length (HUVECs [3]; low modulus, 2 mM CRGDS spots): increased CLS length | effect of VEGFR2 inhibition on CLS length (HUVECs [3]; medium modulus, 0 mM CRGDS spots): decreased CLS length | effect of VEGFR2 inhibition on CLS length compared to growth medium controls (HUVECs [3]; most hydrogel conditions): did not cause significant changes | effect of VEGFR2 inhibition on proliferation (HUVECs [4]; high modulus, 0 mM CRGDS): significant increase in proliferation | effect of VEGFR2 inhibition on proliferation (HUVECs [4]; high modulus, all CRGDS concentrations except 0 mM): significant decreases in proliferation | effect of VEGFR2 inhibition on proliferation (HUVECs [4]; low modulus, 0, 0.25 and 1 mM CRGDS): significant decrease | effect of VEGFR2 inhibition on proliferation (HUVECs [4]; low modulus, 2 mM CRGDS): increased significantly | effect of VEGFR2 inhibition on HUVEC proliferation (HUVECs [4]; majority of hydrogel conditions): decreased | effect of VEGFR2 inhibition on proliferation (HUVECs [4]; medium modulus, 0.5 and 2 mM CRGDS): significant proliferation decreases | reduction of viability with VEGFR2 inhibition (HUVECs [5]; all modulus conditions, spots with 2 mM CRGDS): insignificant | effect of VEGFR2 inhibition on cell viability (HUVECs [5]; conditions without CRGDS): significantly reduced | effect of VEGFR2 inhibition on viability (HUVECs [5]; high modulus, CRGDS at or above 0.5 mM): not significant
